Four compounds from US20170334941A1, “2',2'-DIHALO NUCLEOSIDE ANALOGS FOR TREATMENT OF THE FLAVIVIRIDAE FAMILY OF VIRUSES AND CANCER” (COCRYSTAL PHARMA, INC., priority 2014, published 2017) can be followed below.

The test system of one series is Vero cells. Put plainly: Cellular toxicity assay in Vero cells. Format: cell-based. The procedure: (§1) The toxicity of the compounds was assessed in Vero, human PBM, CEM (human lymphoblastoid), MT-2, and HepG2 cells, as described previously (see Schinazi R. F., Sommadossi J.-P., Saalmann V., Cannon D. L., Xie M.-Y., Hart G. C., Smith G. A. & Hahn E. F. Antimicrob. Agents Chemother. 1990, 34, 1061-67). Cycloheximide was included as positive cytotoxic control, and untreated cells exposed to solvent were included as negative controls. The cytotoxicity IC50 was obtained from the concentration-response curve using the median effective method described previously (see Chou T.-C. & Talalay P. Adv. Enzyme Regul. 1984, 22, 27-55; Belen'kii M. S. & Schinazi R. F. Antiviral Res. 1994, 25, 1-11).

Series [1] relates to CEM (human lymphoblastoid) cells. Briefly: Cellular toxicity assay in CEM cells. Format: cell-based. The procedure: as §1
In a further series the test system is human PBM cells. Put plainly: Cellular toxicity assay in human PBM cells. Format: cell-based. To be noted: Human PBM cells. The method, then:
as §1

Series [2] is described as follows: Cellular toxicity assay in Vero cells. Format: cell-based. To be noted: African green monkey, read-out: Cytotoxicity, CC50. The method, then:
as §1

Series [3] is described as follows: Cellular toxicity assay in CEM cells. To be noted: human, read-out: Cytotoxicity, CC50. Format: cell-based, human. The method, then:
as §1

Series [4] in a line: Cellular toxicity assay in human PBM cells. Format: cell-based. To be noted: read-out: Cytotoxicity, CC50. The method, then: as §1
The subject of series [5] is HCV GT 1b replicon (Huh-7 cells). Briefly: HCV replicon assay. Format: cell-based. The following applies: Hepatitis C virus, GT1B. The method, then:
(§2) The HCV replicon assay was carried out as described in Stuyver L et al., Ribonucleoside analogue that blocks replication or bovine viral diarrhea and hepatitis C viruses in culture. Antimicrob. Agents Chemother. 2003, 47, 244-254. Huh 7 Clone B cells containing HCV Replicon RNA were seeded in a 96-well plate at 5000 cells/well, and the compounds tested at 10 μM in triplicate immediately after seeding. Following five days incubation (37° C., 5% CO2), total cellular RNA was isolated by using versaGene RNA purification kit from Gentra. Replicon RNA and an internal control (TaqMan rRNA control reagents, Applied Biosystems) were amplified in a single step multiplex Real Time RT-PCR Assay. The antiviral effectiveness of the compounds was calculated by subtracting the threshold RT-PCR cycle of the test compound from the threshold RT-PCR cycle of the no-drug control (ΔCt HCV). A ACt of 3.3 equals a 1-log reduction (equal to 90% less starting material) in Replicon RNA levels. The cytotoxicity of the compounds was also calculated by using the ΔCt rRNA values. 2′-C-Me-C was used as the positive control. To determine EC90 and IC50 values (using methods described in Reed I J & Muench H, A simple method or estimating fifty percent endpoints. Am. J. Hyg. 27: 497, 1938), ΔCt: values were first converted into fraction of starting material (Applied Biosystems Handbook) and then were used to calculate the % inhibition.
In general terms: Replicon systems follow genome replication, usually without infectious particles.

Series [6] can be described thus: Cytotoxicity in HCV replicon assay (ΔCt rRNA). Format: cell-based. To be noted: human, Huh-7 Clone B cells containing HCV GT 1b replicon RNA, Huh-7 cells. The method, then: as §2, with “To determine EC90 and IC50 values (using methods described in Reed I J & Muench H, A simple method or estimating fifty percent endpoints. Am. J. Hyg. 27: 497, 1938), ΔCt: values were first converted into fraction of starting material (Applied Biosystems Handbook) and then were used to calculate the % inhibition.” left out

Where two headings read alike, the source gives them in different places.

As a reminder, the % inhibition is the relative decrease from the control value, in per cent. The CC50 is the concentration at which the toxic effect on the cells reaches its halfway point. As to `O=c1ccn(C2OC(CO)C(O)C2(Cl)Cl)c(=O)[nH]1` (centres unmarked) [Compound 17], the “% inhibition at maximum concentration evaluated” value (“% inhibition” for short) with Vero cells was 1.4%; in series [1] it was −1.9%; with human PBM cells it was −11%. For the same compound, the half-maximal cytotoxic concentration (CC50) in the series on Vero cells (read-out: Cytotoxicity, CC50) was above 100 µM; in series [1] (read-out: Cytotoxicity, CC50), above 100 µM; in the series with human PBM cells (read-out: Cytotoxicity, CC50) it was above 100 µM.
Consider `CC(C)OC(=O)[C@H](C)NP(=O)(OC[C@H]1O[C@@H](n2ccc(=O)[nH]c2=O)C(Cl)(Cl)[C@@H]1O)Oc1ccccc1` (stereo partly drawn) [Compound 18, (2S)-isopropyl 2-(((((2R,3R,5R)-4,4-dichloro-5-(2,4-dioxo-3,4-dihydropyrimidin-1(2H)-yl)-3-hydroxytetrahydrofuran-2-yl)methoxy)(phenoxy)phosphoryl)amino)propanoate], for which the “% inhibition” value with Vero cells is recorded as 2.3%; in series [1], 17%; with human PBM cells, 25%. The CC50 in series [2], in series [3] and in series [4] (Human PBM cells) was above 100 µM throughout.
As usually defined, the EC50 is the concentration needed to bring the measured effect to its halfway point. In general, EC90 refers to the concentration at which the effect reaches the 90% level. For the compound `Nc1ccn([C@@H]2O[C@H](CO)[C@@H](O)C2(Cl)Cl)c(=O)n1` [Compound 22, 4-amino-1-((2R,4R,5R)-3,3-dichloro-4-hydroxy-5-(hydroxymethyl)tetrahydrofuran-2-yl)pyrimidin-2(1H)-one], the “% inhibition” value in the series on Vero cells is reported as 101%; in series [1], 87%; with human PBM cells, 82%. Further, the CC50 in series [2] was below 1 µM; in series [3] (CEM lymphoblastoid cells) it was below 1 µM; in series [4] (human, human PBM cells), below 1 µM. The EC50 in series [5] (HCV GT 1b replicon, Huh-7 cells, read-out: EC50) is above 10 µM. For the same compound, the concentration for an effect of 90% (EC90) in series [5] (HCV GT 1b replicon, Huh-7 cells, read-out: EC90) is above 10 µM. Besides, the CC50 at 5 days in series [6] is above 10 µM.
`CC(C)OC(=O)[C@H](C)NP(=O)(OC[C@H]1O[C@@H](n2ccc(N)nc2=O)C(Cl)(Cl)[C@@H]1O)Oc1ccccc1` (stereo partly drawn) [Compound 23, (2S)-isopropyl 2-(((((2R,3R,5R)-5-(4-amino-2-oxopyrimidin-1(2H)-yl)-4,4-dichloro-3-hydroxytetrahydrofuran-2-yl)methoxy)(phenoxy)phosphoryl)amino)propanoate]: the “% inhibition” value was 101% with Vero cells, “(−86 @ 100) %” in series [1] and 91% with human PBM cells. Moreover, the CC50 in series [2] and in series [4] (Human PBM cells) was below 1 µM each time. In series [5] (Huh-7), this compound displayed an EC50 of 0.1 to 1 µM. In addition, the concentration for an effect of 90% (EC90) in series [5] (Huh-7) was in the range of 0.1 to 1 µM. Besides, in series [6], the CC50 at 5 days is above 10 µM.
